Earlier results on one molecule are cited in US12485093B2, “Composition for use as an antiviral in the form of nasal drops and in nebulisers” (DERMOPARTNERS, S.L., priority 2021, dated 2025).

The subject of this data set is SARS-CoV-2. The following applies: concentration of 5% m/v.

Regarding `OC[C@@H](O)[C@H](O)[C@@H](O)CO` [xylitol], the “viricidal and antiviral activity on SARS-CoV-2” value was “viricidal and exhibit antiviral activity”.
